Molecules are shown by their SMILES. “Also recorded” adds a separate entry of the source. Where two headings read alike, the source gives them in different places. Some results are limits rather than exact numbers.

For data set [1], the system named is guinea pig tracheal rings. Briefly: Acetylcholine-induced contraction of isolated tracheal rings. Particulars: for minimal effective concentration: Cavia porcellus, 5 min; for spasmogenic activity by itself: absence of ACh.
In data set [2] the test system is guinea pig tracheal rings. Briefly: Carbachol-induced contraction of isolated tracheal rings. Conditions: Cavia porcellus, 5 min, read-out: reduction of carbachol-induced contraction.
The test system of data set [3] is chicken biventer cervicis muscle. Briefly: Chicken biventer cervicis muscle in vitro, assay for antinicotinic activity. It counts as cell-based. From the text:
As observed by the present inventors, MEG was ineffective in altering the amplitude of tension produced by supramaximal electrical stimulation, or ACh-produced contraction of the chicken biventer cervicis muscle in vitro, an assay for antinicotinic activity (B. L. Ginsborg et al., Br. J. Pharmacol. 15:410 (1960); H. A. N. El-Fawal et al., Neurotoxicology 9:625 (1988)).

The next data set concerns squirrel monkeys. In words: Whole body plethysmograph, airway conductance / bronchoconstriction in vivo. Also noted: species or system squirrel monkey. On the procedure: (§1) Squirrel monkeys or guinea pigs were restrained in a whole body plethysmograph, a sealed box with a separate face mask for each animal. A pneumotachograph and stain gauge assembly permitted the measurement of flow. The ratio of derivatives of flow to box pressure yield a measure of airway conductance (SGAW). MEG was administered at concentrations up to 15 mg/liter of air.
This was studied by exposing a population of squirrel monkeys, which were well-trained and adapted to the experimental setting, to aerosolized cholinergic agonists and then studying the effects of MEG or cocaine pretreatment on the response to cholinergic provocation.
Care was taken to exclude any other source of potential measurement artifact, including reducing dead volumes, examining for leaks, recalibration, and so forth. The particles were dehydrated to reduce their size and facilitate airway entry. The monkeys' nares were occluded to compel mouth breathing. Greater methacholine concentrations in the nebulizer were tested until dramatic decreases in heart rate occurred, consistent with significant systemic absorption of this relatively short duration cholinergic agonist.
This may reflect the antihistaminic activity of MEG observed in vitro.

The test system of data set [4] is guinea pig tracheal rings. Briefly: Histamine-induced contraction of isolated tracheal rings.
The subject of another data set is guinea pigs. In words: Inhalation exposure safety in guinea pigs. The data set is classed as in vivo, guinea pig. On the procedure:
as §1
Guinea pigs are known to be highly sensitive to pulmonary manipulations.

Data set [5] concerns guinea pig tracheal rings. Briefly: Relaxation or tension of pre-contracted tracheal rings.
For data set [6], the system named is guinea pig tracheal rings. Conditions: atropine at 3, 10 and 30 nM; cited from earlier work.
Data set [7] has as its system guinea pig tracheal rings. Conditions: cited from earlier work.
Another data set relates to muscarinic receptor. Particulars: cited from earlier work.

In the case of `COC(=O)C1=CCC2CCC1N2C` (centres unmarked) [MEG, anhydroecgonine methyl ester], in data set [1], the cholinergic agonist activity entry is reported as “lack any cholinergic agonist activity”. In addition, the “kind of antagonism of ACh-induced contraction” value in data set [1] (ACh up to 2×10^-3 M) was “reduced the magnitude of contraction produced by ACh without changing the tissue threshold of contraction; also recorded: could not be overcome; also recorded: non-competitively antagonized acetylcholine; also recorded: potent non-competitive cholinergic antagonist”. Besides, the minimal effective concentration in [1] (read-out: concentration at and above which insurmountable non-competitive antagonism was produced) is at least 0.001 µM; in data set [1] (read-out: concentration at and above which peak tension produced by ACh was reduced) it was at least 0.001 µM; in data set [1] (read-out: lowest level showing anticholinergic properties), 0.1 µM. Further, the “effect of MEG on cocaine's sensitization/potentiation of ACh” value in data set [1] (MEG 10^-7 M with cocaine 5×10^-6 M) is recorded as “antagonized cocaine's potentiation of acetylcholine's efficacy; also recorded: reduced the sensitization to ACh; also recorded: non-competitively antagonized ACh in the presence of cocaine sensitization”. Also, the “recovery of responsiveness to ACh after exposure” value in data set [1] (after washing of the preparation) is recorded as “full responsiveness to ACh could not be restored; also recorded: no recovery after washing of the preparation; also recorded: irreversible”. In [2], the inhibition at 0.1 µM is 50%. The “effect on amplitude of tension from supramaximal electrical stimulation or ACh-produced contraction” value in data set [3] is “ineffective”. In addition, the “bronchoconstriction in response to inhaled histamine” value in the data set on squirrel monkeys (animals pretreated with MEG) was “bronchoconstriction, but only at unusually high levels”. The “airway effect of MEG given alone by inhalation” value in the data set on squirrel monkeys (squirrel monkeys or guinea pigs, up to 15 mg/liter of air) was “Bronchoconstriction was observed”. The “bronchoconstriction in response to aerosolized ACh or methacholine” value in the data set with squirrel monkeys (squirrel monkeys with extensive histories of exposure to MEG) is given as “unable to produce bronchoconstriction; also recorded: no bronchoconstriction observed”. Also, the “effect on histamine threshold” value in [4] (MEG 10^-7) is “shifting the histamine threshold upwards”. For the same molecule, the “effect on contraction-inducing action of histamine” value in [4] (MEG 10^-7 and 10^-9 M) was “antagonized the contraction-inducing action of histamine”. In addition, the mortality entry in the data set on guinea pigs (14 mg/liter of air by inhalation) is given as “Only one exposed guinea pig died”. Further, in the data set with guinea pigs (in vivo studies), the margin of safety entry was “wide margin of safety”. The “effect on rings with mechanically elevated tension” value in data set [5] is “failed to relax”. In data set [5] (pre-contraction with 10^-3 ACh), the “concentrations for relaxation relative to those antagonizing ACh-induced contraction with preincubation” value was “two orders of magnitude higher”. Also, in [5] (pre-contraction with 10^-3 ACh), the “effect on rings pre-contracted with ACh” value is given as “dose-dependent relaxation”.
For `CN1[C@@H]2CC[C@H]1C[C@@H](OC(=O)C(CO)c1ccccc1)C2` (some centres unmarked) [atropine], the “kind of antagonism of ACh-induced contraction” value in data set [6] was “competitively antagonized ACh-induced contraction”. Further, the “carbachol concentration at which the effect was surmountable” value in [7] (10^-7 M atropine) is given as 10^-4 M. In data set [7] (10^-7 atropine), the “magnitude of reduction at any given carbachol concentration, compared with MEG” value is listed as “usually less than that produced by MEG”.
With `COC(=O)[C@H]1[C@@H](OC(=O)c2ccccc2)C[C@@H]2CC[C@H]1N2C` [cocaine, reference compound], in data set [1], the “spasmogenic activity by itself” value was “did not produce tension in the absence of ACh”. Besides, in data set [1] (listed as Cocaine), the “spasmogenic activity by itself” value is on record as “did not display any spasmogenic activity”. For the same molecule, in [1] (cocaine 5×10^-6 M), the “effect on maximum tension produced by ACh” value is “increased the maximum tension produced” and the “lowering of the threshold at which ACh produced tension” value was “two orders of magnitude”. The “concentration that decreased ACh-induced tension” value in [1] (cocaine HCl) was 10^-4 M. Also, the “concentrations that increased ACh-induced tension” value in data set [1] (cocaine HCl, 5 min incubation) is on record as 10^-7 to 10^-5 M. Also, in [1] (cocaine at 10^-4 M), the “effect on maximum response relative to ACh alone” value is on record as “reduced the maximum response to a third” and the “effect on threshold for contraction elicited by ACh” value is “increased the threshold”. Also, the “effect on threshold for contraction elicited by ACh” value in [1] (cocaine at 10^-6 M) is “lowered the threshold”. The “effect on tension produced by ACh at the highest ACh concentration” value in data set [1] (cocaine at 10^-7 M, ACh 2×10^-3 M) is “increased the tension”. For the same molecule, the “recovery of responsiveness to ACh after exposure” value in data set [1] (cocaine at concentrations below 10^-4 M) is recorded as “restored with no desensitization”. In addition, the “concentration with antimuscarinic properties as assayed by QNB binding” value in the data set with muscarinic receptor is 18 µM. Moreover, the “effect on tissue pre-contracted with ACh” value in data set [5] (cocaine from 10^-4 M to 2×10^-3 M) is “further increase in dose-dependent tension”.
